For 40 molecules, IC50 results are on record in ChEMBL document CHEMBL1833862, “Synthesis and biological evaluation of novel 2-arylamino-3-(arylsulfonyl)quinoxalines as PI3Kα inhibitors” (Eur J Med Chem, 2011).

One assay relates to A549. The assay is described as follows: Cytotoxicity against human A549 cells after 72 hrs by MTT assay. The class given is functional, cell-based. Particulars: A549, 72 h.
For the next assay, the system named is HL-60. In words: Cytotoxicity against human HL60 cells after 72 hrs by MTT assay. In kind it is functional, cell-based. As to conditions: HL-60, 72 h.
The subject of the next assay is PC-3. The assay is described as follows: cells. As to conditions: Homo sapiens, PC-3, 72 h.
A further assay relates to HCT-116. The assay is described as follows: cells. As to conditions: Homo sapiens, HCT-116, 72 h.
The subject of the next assay is KB. The assay is described as follows: Cytotoxicity against human KB cells after 72 hrs by MTT assay. The class given is functional, cell-based.
The target in assay [1] is Phosphatidylinositol 4,5-bisphosphate 3-kinase catalytic subunit alpha isoform (Homo sapiens, UniProt P42336). In words: Inhibition of human recombinant PI3Kalpha assessed as production of 3,4,5-inositoltriphosphate after 3 hrs by fluorescence polarization assay.
Chain of Phosphatidylinositol 4,5-bisphosphate 3-kinase catalytic subunit alpha isoform (P42336 whole entry, canonical isoform): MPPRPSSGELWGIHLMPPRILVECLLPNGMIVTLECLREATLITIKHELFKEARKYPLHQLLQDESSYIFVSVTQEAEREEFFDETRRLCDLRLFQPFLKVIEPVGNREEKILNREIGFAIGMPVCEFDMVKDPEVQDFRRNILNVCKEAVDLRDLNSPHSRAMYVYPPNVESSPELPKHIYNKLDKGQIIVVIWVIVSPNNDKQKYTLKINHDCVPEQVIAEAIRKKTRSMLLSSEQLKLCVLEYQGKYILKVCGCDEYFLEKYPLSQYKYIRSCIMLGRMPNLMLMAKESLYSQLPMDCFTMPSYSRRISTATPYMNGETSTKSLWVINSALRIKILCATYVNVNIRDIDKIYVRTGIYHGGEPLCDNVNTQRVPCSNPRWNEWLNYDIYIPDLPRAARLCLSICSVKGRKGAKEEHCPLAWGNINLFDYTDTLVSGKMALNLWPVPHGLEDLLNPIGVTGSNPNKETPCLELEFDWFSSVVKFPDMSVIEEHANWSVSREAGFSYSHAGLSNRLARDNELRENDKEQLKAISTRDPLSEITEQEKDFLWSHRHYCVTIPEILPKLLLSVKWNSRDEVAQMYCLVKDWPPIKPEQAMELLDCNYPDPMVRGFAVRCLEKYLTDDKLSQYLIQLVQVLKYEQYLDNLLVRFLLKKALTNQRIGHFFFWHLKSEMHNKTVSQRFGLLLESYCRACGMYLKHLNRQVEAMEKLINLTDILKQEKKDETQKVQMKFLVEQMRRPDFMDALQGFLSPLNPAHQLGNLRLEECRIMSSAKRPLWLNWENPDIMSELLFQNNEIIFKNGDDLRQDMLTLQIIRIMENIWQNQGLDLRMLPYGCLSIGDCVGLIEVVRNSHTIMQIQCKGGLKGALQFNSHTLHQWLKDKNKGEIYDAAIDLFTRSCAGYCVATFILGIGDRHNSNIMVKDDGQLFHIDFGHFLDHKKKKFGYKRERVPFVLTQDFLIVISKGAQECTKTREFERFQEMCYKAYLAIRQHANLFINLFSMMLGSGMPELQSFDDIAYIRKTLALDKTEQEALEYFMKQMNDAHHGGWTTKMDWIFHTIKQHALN

Description for PC-3: Cytotoxicity against human PC3 cells after 72 hrs by MTT assay

As to `COc1cc(Nc2nc3ccccc3nc2S(=O)(=O)c2ccc(C)cc2)cc(OC)c1OC`, the half-maximal inhibitory concentration (IC50) in the assay on A549 is 5.61 µM; in the assay with HL-60, 0.32 µM; in the assay with PC-3, 4.85 µM; in the assay with HCT-116 it was 10.8 µM.

For the molecule `Nc1cccc(Nc2nc3ccccc3nc2S(=O)(=O)c2ccc(F)cc2)c1`, the IC50 with A549 turned out to be 6.84 µM; in the assay on HL-60 it was 4.04 µM; in the assay with PC-3, 1.98 µM; with HCT-116 it was 6.79 µM.

In the case of `Nc1ccc(Nc2nc3ccccc3nc2S(=O)(=O)c2ccccc2)cc1`, the IC50 in the assay with A549 came to 12.8 µM; in the assay with HL-60, 8.72 µM; in the assay on KB it was 3.4 µM; in the assay on PC-3, 5.83 µM; in the assay with HCT-116 it was 10.8 µM.

For the molecule `O=S(=O)(c1ccccc1)c1nc2ccccc2nc1Nc1ccc(F)cc1`, the IC50 is greater than 50 µM with A549; 1.01 µM in the assay on HL-60; greater than 50 µM with KB; 14.2 µM with PC-3; 5.19 µM in the assay on HCT-116.

Take `COc1ccc(Nc2nc3ccccc3nc2S(=O)(=O)c2ccc(C)cc2)cc1`: the IC50 in the assay with A549 is greater than 50 µM; with HL-60, 2.79 µM; in the assay with PC-3 it was greater than 50 µM; in the assay with HCT-116 it was greater than 50 µM.

As for `COc1ccc(S(=O)(=O)c2nc3ccccc3nc2Nc2ccc(N)cc2)cc1`, the half-maximal inhibitory concentration (IC50) in the assay on A549 was found to be 2.99 µM; in the assay with HL-60 it was 0.71 µM; with KB, 17.8 µM; in the assay on PC-3, 9.64 µM; in the assay on HCT-116 it was 6.3 µM.

For the molecule `Cc1ccc(S(=O)(=O)c2nc3ccccc3nc2Nc2ccc(Cl)cc2)cc1`, the 50% inhibitory concentration (IC50) in the assay with A549 was found to be 54.2 µM; in the assay with HL-60 it was 17.5 µM; in the assay with KB it was 13.8 µM; with PC-3, 9.66 µM; in the assay with HCT-116, 2.05 µM.

As to `COc1ccc(S(=O)(=O)c2nc3ccccc3nc2Nc2ccccc2)cc1`, the half-maximal inhibitory concentration (IC50) in the assay on A549 stood at 13.2 µM; in the assay with HL-60, 0.26 µM; in the assay with KB, 9.89 µM; in the assay on PC-3, 1.26 µM; in the assay with HCT-116, 1.26 µM.

On to `COc1ccc(Nc2nc3ccccc3nc2S(=O)(=O)c2ccc(Br)cc2)cc1`, for which the half-inhibitory concentration (IC50) with A549 worked out at 3.34 µM; with HL-60 it was 1.19 µM; in the assay with PC-3, 1.11 µM; in the assay with HCT-116 it was 3.4 µM.

Take `O=S(=O)(c1ccc(Br)cc1)c1nc2ccccc2nc1Nc1ccc(C(F)(F)F)cc1`: the 50% inhibitory concentration (IC50) was greater than 50 µM in the assay with A549; 0.28 µM with HL-60; greater than 50 µM with KB; 4.15 µM in the assay with PC-3; 2.61 µM with HCT-116.

With `O=S(=O)(c1ccccc1)c1nc2ccccc2nc1Nc1ccc(Cl)cc1`, the IC50 in the assay on A549 amounted to 30.7 µM; with HL-60, 1.92 µM; in the assay on KB it was 41.2 µM; in the assay on PC-3 it was 15.3 µM; in the assay with HCT-116, 2 µM.

Turning to `Nc1cccc(Nc2nc3ccccc3nc2S(=O)(=O)c2ccccc2)c1`, the IC50 came to 1.59 µM in the assay on A549; 1.75 µM in the assay on HL-60; 4.29 µM in the assay with KB; 2.15 µM with PC-3; 1.54 µM in the assay with HCT-116.

`COc1ccc(S(=O)(=O)c2nc3ccccc3nc2Nc2ccc(C(F)(F)F)cc2)cc1`: the IC50 with A549 worked out at 4.81 µM; in the assay on HL-60, 0.22 µM; in the assay on KB, 0.89 µM; in the assay with PC-3, 0.33 µM; with HCT-116 it was 0.11 µM.

On to `O=S(=O)(c1ccccc1)c1nc2ccccc2nc1Nc1ccc(C(F)(F)F)cc1`, for which the IC50 is greater than 50 µM in the assay on A549; 0.3 µM with HL-60; greater than 50 µM in the assay with KB; 3.55 µM in the assay with PC-3; 2.09 µM with HCT-116.

On to `COc1ccc(S(=O)(=O)c2nc3ccccc3nc2Nc2ccc(F)cc2)cc1`, for which the concentration for half-maximal inhibition (IC50) in the assay with A549 came out at 1.24 µM; with HL-60 it was 0.61 µM; with KB, 2.59 µM; in the assay with PC-3, 2.2 µM; with HCT-116, 2.11 µM.

In the case of `COc1ccc(S(=O)(=O)c2nc3ccccc3nc2Nc2ccc(Cl)cc2)cc1`, the half-maximal inhibitory concentration (IC50) amounted to 87.3 µM in the assay on A549; 19.6 µM in the assay with HL-60; 49.8 µM with KB; 31.8 µM with PC-3; 26.5 µM with HCT-116.

Regarding `COc1ccc(Nc2nc3ccccc3nc2S(=O)(=O)c2ccc(OC)cc2)cc1`, the IC50 came out at 8.26 µM in the assay on A549, 1.19 µM in the assay on HL-60, 8.71 µM in the assay on PC-3 and 29.1 µM in the assay with HCT-116.

For `COc1ccc(Nc2nc3ccccc3nc2S(=O)(=O)c2ccc(F)cc2)cc1`, the IC50 with A549 came out at 4.84 µM; with HL-60, 1.2 µM; in the assay on PC-3, 4.33 µM; in the assay on HCT-116 it was 3.01 µM.

Regarding `COc1cc(Nc2nc3ccccc3nc2S(=O)(=O)c2ccccc2)cc(OC)c1OC`, the IC50 is 9.66 µM with A549, 1.77 µM with HL-60, 29.1 µM in the assay on PC-3 and greater than 50 µM in the assay with HCT-116.

For `Nc1cccc(Nc2nc3ccccc3nc2S(=O)(=O)c2ccc(Br)cc2)c1`, the IC50 in the assay on A549 came to 1.12 µM; in the assay on HL-60 it was 1.37 µM; with KB it was 5.34 µM; with PC-3, 9.01 µM; with HCT-116, 3.28 µM.

`O=S(=O)(c1ccc(Br)cc1)c1nc2ccccc2nc1Nc1ccc(Cl)cc1`: the IC50 in the assay on A549 worked out at 61.4 µM; with HL-60, 16.4 µM; in the assay on KB, 11.6 µM; in the assay with PC-3, 7.46 µM; in the assay on HCT-116 it was 10.6 µM.

Consider `COc1ccc(S(=O)(=O)c2nc3ccccc3nc2Nc2cccc(N)c2)cc1`, for which the concentration for half-maximal inhibition (IC50) with A549 worked out at 0.34 µM; in the assay on HL-60, 1.49 µM; in the assay with KB, 4.96 µM; in the assay with PC-3, 8.6 µM; with HCT-116, 3.71 µM.

Regarding `COc1ccc(Nc2nc3ccccc3nc2S(=O)(=O)c2ccccc2)cc1`, the half-inhibitory concentration (IC50) with A549 stood at 11.9 µM; with HL-60, 0.64 µM; in the assay on PC-3 it was 1.51 µM; with HCT-116 it was 2.42 µM.

For `O=c1cc(N2CCOCC2)oc2c(-c3ccccc3)cccc12` [LY-294002], the IC50 is 89.7 µM in the assay with A549; 9.94 µM in the assay with HL-60; 44.8 µM in the assay with KB; 61.4 µM in the assay on PC-3; 56 µM in the assay with HCT-116.

`COc1cc(Nc2nc3ccccc3nc2S(=O)(=O)c2ccc(Br)cc2)cc(OC)c1`: the IC50 with A549 is 15.8 µM; with HL-60 it was 2.54 µM; with PC-3, 18.2 µM; in the assay on HCT-116, greater than 50 µM.

`O=S(=O)(c1ccccc1)c1nc2ccccc2nc1Nc1ccccc1`: the IC50 with A549 stood at 26.3 µM; in the assay on HL-60, 0.14 µM; with KB, 22.6 µM; in the assay on PC-3, 0.59 µM; in the assay on HCT-116 it was 1.63 µM.

As for `Cc1ccc(S(=O)(=O)c2nc3ccccc3nc2Nc2ccc(C(F)(F)F)cc2)cc1`, the half-maximal inhibitory concentration (IC50) with A549 was found to be 13.5 µM; with HL-60, 0.27 µM; in the assay on KB, 10.3 µM; in the assay with PC-3, 2.54 µM; with HCT-116, 0.95 µM.

Turning to `COc1cc(Nc2nc3ccccc3nc2S(=O)(=O)c2ccc(Br)cc2)cc(OC)c1OC`, the 50% inhibitory concentration (IC50) in the assay on A549 was 6.11 µM; with HL-60, 1.02 µM; in the assay with PC-3, 19.8 µM; with HCT-116, 13 µM.

On to `COc1cc(Nc2nc3ccccc3nc2S(=O)(=O)c2ccccc2)cc(OC)c1`, for which the IC50 was 0.07 µM in the assay on A549; 0.05 µM in the assay with HL-60; 0.07 µM in assay [1]; 0.14 µM in the assay with PC-3; 0.95 µM with HCT-116.

Consider `COc1cc(Nc2nc3ccccc3nc2S(=O)(=O)c2ccc(F)cc2)cc(OC)c1OC`, for which the IC50 with A549 is greater than 50 µM; with HL-60, 4.79 µM; with PC-3, greater than 50 µM; in the assay on HCT-116 it was 3.11 µM.

Turning to `COc1ccc(S(=O)(=O)c2nc3ccccc3nc2Nc2cc(OC)cc(OC)c2)cc1`, the IC50 in the assay on A549 was found to be 12.7 µM; in the assay on HL-60, 1.71 µM; in the assay on PC-3, 6.22 µM; in the assay with HCT-116, 13.4 µM.

Turning to `COc1ccc(S(=O)(=O)c2nc3ccccc3nc2Nc2cc(OC)c(OC)c(OC)c2)cc1`, the IC50 is 5.17 µM in the assay with A549, 0.68 µM with HL-60, 7.85 µM in the assay on PC-3 and greater than 50 µM with HCT-116.

Regarding `Cc1ccc(S(=O)(=O)c2nc3ccccc3nc2Nc2cccc(N)c2)cc1`, the IC50 with A549 was 1.95 µM; in the assay with HL-60, 1.08 µM; in the assay with KB, 10.6 µM; in the assay on PC-3 it was 2 µM; with HCT-116, 2.39 µM.

`Cc1ccc(S(=O)(=O)c2nc3ccccc3nc2Nc2ccccc2)cc1`: the 50% inhibitory concentration (IC50) in the assay with A549 amounted to 12.5 µM; in the assay on HL-60, 0.4 µM; with KB, 19 µM; in the assay on PC-3, 1.06 µM; in the assay on HCT-116, 1.07 µM.

In the case of `O=S(=O)(c1ccc(Br)cc1)c1nc2ccccc2nc1Nc1ccc(F)cc1`, the half-maximal inhibitory concentration (IC50) in the assay on A549 stood at 4.36 µM; with HL-60, 0.26 µM; in the assay on KB, 2.28 µM; with PC-3, 9.16 µM; in the assay with HCT-116, 1.67 µM.

With `Cc1ccc(S(=O)(=O)c2nc3ccccc3nc2Nc2ccc(N)cc2)cc1`, the concentration for half-maximal inhibition (IC50) in the assay with A549 was determined as 24.6 µM; in the assay on HL-60, 1.22 µM; in the assay with KB, 5.63 µM; with PC-3, 5 µM; in the assay with HCT-116, 11.5 µM.

As to `COc1cc(Nc2nc3ccccc3nc2S(=O)(=O)c2ccc(F)cc2)cc(OC)c1`, the 50% inhibitory concentration (IC50) in the assay on A549 was found to be 5.45 µM; with HL-60, 2.36 µM; in the assay with PC-3, 4.53 µM; in the assay with HCT-116 it was 3.93 µM.

On to `Cc1ccc(S(=O)(=O)c2nc3ccccc3nc2Nc2ccc(F)cc2)cc1`, for which the half-inhibitory concentration (IC50) worked out at 39.2 µM in the assay with A549; 5.1 µM in the assay with HL-60; 8.95 µM in the assay with KB; 13.1 µM with PC-3; 10.5 µM in the assay on HCT-116.

`O=S(=O)(c1ccc(Br)cc1)c1nc2ccccc2nc1Nc1ccccc1`: the IC50 in the assay with A549 was determined as 10.8 µM; in the assay with HL-60 it was 0.13 µM; in the assay on KB it was 5.1 µM; in the assay on PC-3, 1.18 µM; with HCT-116, 1.11 µM.

For the molecule `Nc1ccc(Nc2nc3ccccc3nc2S(=O)(=O)c2ccc(F)cc2)cc1`, the IC50 was 12.7 µM in the assay with A549, 1.62 µM with HL-60, 2.05 µM in the assay with PC-3 and 10.1 µM in the assay on HCT-116.
